Measurements taken from the Kinase Knowledgebase extract (Sharma et al. 2016).

What follows are compounds tested against EGFR (human) (UniProt P00533). Settings: a431.
Sequence of EGFR (human) (P00533 whole entry, looked up): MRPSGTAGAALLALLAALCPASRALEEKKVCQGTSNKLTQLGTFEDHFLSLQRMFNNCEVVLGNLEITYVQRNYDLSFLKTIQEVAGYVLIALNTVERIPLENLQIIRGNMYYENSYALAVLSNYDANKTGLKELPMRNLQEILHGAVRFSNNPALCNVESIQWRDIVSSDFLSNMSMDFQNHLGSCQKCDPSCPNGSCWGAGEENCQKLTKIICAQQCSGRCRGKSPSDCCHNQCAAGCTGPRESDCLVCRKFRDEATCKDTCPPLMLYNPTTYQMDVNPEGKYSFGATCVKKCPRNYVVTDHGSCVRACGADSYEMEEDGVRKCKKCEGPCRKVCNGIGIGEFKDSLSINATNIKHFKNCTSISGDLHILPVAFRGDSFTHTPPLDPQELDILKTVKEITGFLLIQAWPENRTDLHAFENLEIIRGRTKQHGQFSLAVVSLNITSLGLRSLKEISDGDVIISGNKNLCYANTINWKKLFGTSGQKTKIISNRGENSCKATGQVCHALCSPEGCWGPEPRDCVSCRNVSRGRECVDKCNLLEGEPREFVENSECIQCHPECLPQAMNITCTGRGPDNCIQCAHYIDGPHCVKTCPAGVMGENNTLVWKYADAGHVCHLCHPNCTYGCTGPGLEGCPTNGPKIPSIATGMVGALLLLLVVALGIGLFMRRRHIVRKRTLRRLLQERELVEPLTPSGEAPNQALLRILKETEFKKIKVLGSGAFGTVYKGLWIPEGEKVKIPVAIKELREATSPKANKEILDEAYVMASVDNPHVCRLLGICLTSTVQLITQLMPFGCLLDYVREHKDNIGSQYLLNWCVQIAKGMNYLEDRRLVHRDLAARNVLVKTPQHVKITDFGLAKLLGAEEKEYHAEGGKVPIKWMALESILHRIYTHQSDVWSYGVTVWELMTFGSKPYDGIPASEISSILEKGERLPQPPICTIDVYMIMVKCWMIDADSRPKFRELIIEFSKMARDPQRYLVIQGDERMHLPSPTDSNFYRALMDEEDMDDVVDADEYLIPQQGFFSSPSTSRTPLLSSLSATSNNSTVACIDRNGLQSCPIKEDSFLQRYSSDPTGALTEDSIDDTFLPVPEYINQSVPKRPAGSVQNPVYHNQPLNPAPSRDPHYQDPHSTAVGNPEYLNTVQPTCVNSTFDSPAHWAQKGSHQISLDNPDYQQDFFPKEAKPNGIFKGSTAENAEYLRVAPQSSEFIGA

IC50, > 10 µM:
CS(=O)(=O)Nc1cccc(Nc2ncnc3cc4c(cc23)OCCO4)c1
Cc1cccc(Nc2ncnc3c2ccc2ccccc23)c1
Brc1cccc(Nc2ncnc3c2ccc2ccccc23)c1
Cn1c(=O)n(C)c2cc3c(Nc4cccc(C(F)(F)F)c4)ncnc3cc21
Cc1cccc(Nc2ncnc3cc4c(cc23)n(C)c(=O)n4C)c1
Cc1ccnc(Nc2ncnc3cc4c(cc23)OCO4)c1
Cc1cccc(Nc2ncnc3cc4c(cc23)OCO4)n1
Cc1cccc(Nc2ncnc3cc4c(cc23)OCCO4)n1
CS(=O)(=O)Nc1cccc(Nc2ncnc3cc4c(cc23)OCO4)c1
FC(F)(F)c1cccc(Nc2ncnc3c2ccc2ccccc23)c1
Cn1c(=O)n(C)c2cc3c(Nc4cccc(Br)c4)ncnc3cc21
